Laboratory results from US20080234229A1, “Novel Therapeutic Agents for the Treatment of Cancer, Metabolic Diseases and Skin Disorders” (AUSPEX PHARMACEUTICALS, INC., priority 2005, published 2008).

Key:
[1] = tested on: SKMES cells; assay: SKMES Tumor Cell Proliferation Assay (Alamar Blue); type: cell-based; conditions: human SKMES carcinoma cells; for growth inhibitory effect compared to Targretin: FIG. 2
Procedure: SKMES cells (8×10^3/well in 90% RPMI-1640 medium plus 2 mM glutamine, 10 mM HEPES and 10% Fetal Bovine Serum [FBS]), are pre-incubated in 96-well plates in an atmosphere of 5% CO2 at 37° C. for 24 hours. Test compounds and/or vehicle is then added to each well with a final concentration of 0.5% DMSO, pH 7.4 in RPMI-1640 for an additional 72 hours. After a further 150 minutes incubation in the presence of Alamar Blue, fluorescence intensity is measured using a Gemini plate reader with excitation at 530 nm and emission at […].

[2] = tested on: SW-480 cells; assay: SW-480 Tumor Cell Proliferation Assay (Alamar Blue); type: cell-based; conditions: human SW480 carcinoma cells; for growth inhibitory effect compared to Targretin: FIG. 3; for growth inhibitory effect in the presence of Irinotican: varying concentrations, combination with Irinotican, FIG. 6 and 7
Procedure: SW-480 cells (4×10^3/well in 90% EMEM medium plus 2 mM glutamine, 1 mM pyruvate, 0.1 mM non-essential amino acids and 10% Fetal Bovine Serum [FBS]), are pre-incubated in 96-well plates in an atmosphere of 5% CO2 at 37° C. for 24 hours. Test compounds and/or vehicle is then added to each well with a final concentration of 0.5% DMSO, pH 7.4 in EMEM for an additional 72 hours. After a further 6-hour incubation in the presence of Alamar Blue, fluorescence intensity is measured using a Gemini plate reader with excitation at 530 nm and emission at 590 nm.

[3] = tested on: A375 cells; assay: A375 Tumor Cell Proliferation Assay (Alamar Blue); type: cell-based, human; conditions: for growth inhibitory effect compared to Targretin: FIG. 1; for TGI (Total Growth Inhibition) / IC50: A375 cells, 72 to 168 hours, reference data; for IC50: A-375, read-out: IC50 (50% Inhibitory Concentration)
Procedure: A375 cells (5,000 per well in 90% RPMI-1640 plus 10% Fetal Bovine Serum [FBS]) were pre-incubated in a black clear bottom 96-well plate in an atmosphere of 5% CO2 at 37° C. for 24 hours. Stock solutions of compounds in DMSO were diluted using a buffer and dilutions were added to each well. […] The final assay pH was 7.4. The cells were incubated in RPMI-1640 with each compound for an additional 72 to 168 hours. Alamar Blue was added and the plate was incubated for an additional 12 hours. Fluorescence intensity was measured using a Gemini plate reader with excitation at 530 nm and emission at 590 nm. A decrease of 50 percent or more (≧50%) in fluorescence intensity relative to vehicle treated controls is an indication of significant anti-cancer activity.
TGI (Total Growth Inhibition): Test compound concentration where the increase in number or mass of cells after 72 to 168 hours is reduced to equal that at time t=0.

C=C(c1ccc(B(O)O)cc1)c1cc2c(cc1C)C(C)(C)CCC2(C)C [Example 5, 4-[1-(3,5,5,8,8-Pentamethyl-5,6,7,8-tetrahydro-naphthalen-2-yl)-vinyl]-phenylboronic acid]
growth inhibitory effect compared to Targretin [1]: enhanced activity
growth inhibitory effect in the presence of Taxol ([1]; varying concentrations, combination with Taxol, FIG. 4): synergism
growth inhibitory effect compared to Targretin [2]: enhanced activity
growth inhibitory effect in the presence of Irinotican [2]: synergism
growth inhibitory effect compared to Targretin ([3]; human A375 carcinoma cells): enhanced activity
growth inhibitory effect in the presence of Taxol ([3]; human A375 carcinoma cells, varying concentrations, combination with Taxol, FIG. 5): synergism

COc1cccc2c1C(=O)c1c(O)c3c(c(O)c1C2=O)C[C@@](O)(C(=O)CO)C[C@@H]3O[C@H]1C[C@H](N)[C@H](O)[C@H](C)O1 [Doxorubicin]
TGI (Total Growth Inhibition) [3]: 0.3 µM
IC50 ([3]; Homo sapiens): 0.19 µM
CC50 ([3]; Homo sapiens, A-375, read-out: LC50 (50% Lethal Concentration)): 8 µM

CO[C@@]12[C@H](COC(N)=O)C3=C(C(=O)C(C)=C(N)C3=O)N1C[C@@H]1N[C@@H]12 [Mitomycin]
TGI (Total Growth Inhibition) [3]: 8 µM
IC50 ([3]; Homo sapiens): 4.2 µM

C=C(c1ccc(B2OC(C)(C)C(C)(C)O2)cc1)c1cc2c(cc1C)C(C)(C)CCC2(C)C [Example 4, 4,4,5,5-Tetramethyl-2-{4-[1-(3,5,5,8,8-pentamethyl-5,6,7,8-tetrahydro-naphthalen-2-yl)-vinyl]-phenyl}-[1,3,2]dioxaborolane]
growth inhibitory effect compared to Targretin [1]: enhanced activity
growth inhibitory effect compared to Targretin [2]: enhanced activity
growth inhibitory effect in the presence of Irinotican [2]: synergism
growth inhibitory effect compared to Targretin ([3]; human A375 carcinoma cells): enhanced activity
